Source: patent US8513423B2 (Janssen Pharmaceutica, NV, priority 2010, dated 2013)
Substitutions are numbered along the chain they refer to. Like-named read-outs stand apart in the source and are kept apart here.

What was measured:
[1] = target: T1, purified wild type MGL (wt-MGLL 6H-11-313) (Homo sapiens, UniProt Q99685); assay: MGL enzyme activity assay (4MU-B cleavage), wild type MGL; assay type: biochemical; settings: 10 μM 4MU-B, 5 nM enzyme, 37° C., read-out: MGL wild type inh IC50
T1 construct: purified wild type MGL (wt-MGLL 6H-11-313)
T1 sequence (Q99685 1-303): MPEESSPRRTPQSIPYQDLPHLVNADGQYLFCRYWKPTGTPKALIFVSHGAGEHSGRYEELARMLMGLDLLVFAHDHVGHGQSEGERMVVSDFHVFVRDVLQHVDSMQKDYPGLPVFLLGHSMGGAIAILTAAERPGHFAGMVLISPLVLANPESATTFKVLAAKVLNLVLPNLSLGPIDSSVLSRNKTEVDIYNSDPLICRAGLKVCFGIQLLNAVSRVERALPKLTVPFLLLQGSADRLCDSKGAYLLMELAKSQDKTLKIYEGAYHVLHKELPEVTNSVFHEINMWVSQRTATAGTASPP
Experimental: All rate-based assays were performed in black 384-well polypropylene PCR microplates (Abgene) in a total volume of 30 μL. Substrate 4-methylumbelliferyl butyrate (4MU-B; Sigma) and either purified mutant MGL (mut-MGLL 11-313 L179S L186S) or purified wild type MGL (wt-MGLL 6H-11-313) were diluted separately into 20 mM PIPES buffer (pH=7.0), containing 150 mM NaCl and 0.001% Tween 20. Compounds of Formula (I) were pre-dispensed (50 nL) into the assay plate using a Cartesian Hummingbird prior to adding 4MU-B (25 μL of 1.2× solution to a final concentration of 10 μM) followed by enzyme (5 μL of a 6× solution to a final concentration of 5 nM) to initiate the reaction. Final compound concentrations ranged from 17 to 0.0003 μM. The fluorescence change due to 4MU-B cleavage was monitored with excitation and emission wavelengths of 335 and 440 nm, respectively, and a bandwidth of 10 nm (Safire^2, Tecan) at 37° C. for 5 min.
The IC50 values for compounds of Formula (I) were determined using Excel from a fit of the equation to the concentration-response plot of the fractional activity as a function of inhibitor concentration.

MGL = target: T2, MGL (Rattus norvegicus, UniProt Q8R431); assay: 2-AG accumulation assay in rat brain homogenate; assay type: biochemical; settings: compound @1 μM; for 2-AG accumulation, percent of vehicle control at 1 µM: read-out: Rat Brain 2AG % VehCntrl (%) @1 μM
T2 construct: one g rat brain was homogenized; from tissue; host or cells: rat brain homogenate
T2 sequence (Q8R431 1-303): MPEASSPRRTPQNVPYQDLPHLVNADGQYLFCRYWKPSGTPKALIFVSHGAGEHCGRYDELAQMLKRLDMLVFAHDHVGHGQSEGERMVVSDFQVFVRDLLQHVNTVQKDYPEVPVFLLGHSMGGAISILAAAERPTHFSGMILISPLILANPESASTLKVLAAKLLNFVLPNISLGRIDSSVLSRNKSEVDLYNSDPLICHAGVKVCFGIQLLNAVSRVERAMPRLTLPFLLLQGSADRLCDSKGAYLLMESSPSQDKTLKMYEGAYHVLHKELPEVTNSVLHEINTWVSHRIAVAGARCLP
Experimental: After a 15-min incubation time at 37° C., CaCl2 (final concentration=10 mM) was added and then incubated for 15 min at 37° C. in a total volume of 5 mL. The reactions were stopped with 6 mL organic solvent extraction solution of 2:1 chloroform/methanol. Accumulated 2-AG in the organic phase was measured by a HPLC/MS method, according to the following equation: percent vehicle=(2-AG accumulation in the presence of compound/2-AG accumulation in vehicle)×100.

mutant MGL = target: T3, mutant MGL (Homo sapiens, UniProt Q99685, L169S/L176S); assay: MGL ThermoFluor assay - mutant; assay type: binding
T3 construct: purified mutant MGL (mut-MGLL 11-313 L179S L186S)
T3 sequence (Q99685 1-303 L169S/L176S): T1 sequence (Q99685 1-303) with L169S, L176S
Experimental: The ThermoFluor (TF) assay is a 384-well plate-based binding assay that measures thermal stability of proteins^1,2. The experiments were carried out using instruments available from Johnson & Johnson Pharmaceutical Research & Development, LLC. TF dye used in all experiments was 1,8-ANS (Invitrogen: A-47). Final TF assay conditions used for MGL studies were 0.07 mg/ml of mutant MGL, 100 μM ANS, 200 mM NaCl, 0.001% Tween-20 in 50 mM PIPES (pH=7.0).
Screening compound plates contained 100% DMSO compound solutions at a single concentration. For follow-up concentration-response studies, compounds were arranged in a pre-dispensed plate (Greiner Bio-one: 781280), wherein compounds were serially diluted in 100% DMSO across 11 columns within a series. Columns 12 and 24 were used as DMSO reference and contained no compound. For both single and multiple compound concentration-repsonse experiments, the compound aliquots (46 nL) were robotically predispensed directly into 384-well black assay plates (Abgene: TF-0384/k) using the Hummingbird liquid handler. Following compound dispension, protein and dye solutions were added to achieve the final assay volume of 3 μL. The assay solutions were overlayed with 1 μl of silicone oil (Fluka, type DC 200: 85411) to prevent evaporation.
Bar-coded assay plates were robotically loaded onto a thermostatically controlled PCR-type thermal block and then heated from 40 to 90° C. degrees at a ramp-rate of 1° C./min for all experiments. Fluorescence was measured by continuous illumination with UV light (Hamamatsu LC6), supplied via fiber optics and filtered through a band-pass filter (380-400 nm; >6 OD cutoff). Fluorescence emission of the entire 384-well plate was detected by measuring light intensity using a CCD camera (Sensys, Roper Scientific) filtered to detect 500±25 nm, resulting in simultaneous and independent readings of all 384 wells. A single image with 20-sec exposure time was collected at each temperature, and the sum of the pixel intensity in a given area of the assay plate was recorded vs temperature and fit to standard equations to yield the Tm^1. • 1. Pantoliano, M. W., Petrella, E. C., Kwasnoski, J. D., Lobanov, V. S., Myslik, J., Graf, E., Carver, T., Asel, E., Springer, B. A., Lane, P., and Salemme, F. R. (2001) J Biomol Screen 6, 429-40. • 2. Matulis, D., Kranz, J. K., Salemme, F. R., and Todd, M. J. (2005) Biochemistry 44, 5258-66.
The Kd values for compounds of Formula (I) were determined from a fit of the equation to the concentration-response plot of the fractional activity as a function of Tm. For some experiments, quantitative NMR spectroscopy (qNMR) was used to measure concentration of the initial 100% DMSO compound solutions and, using the same fitting method, qKd values were determined

[2] = 0.07 mg/ml mutant MGL, pH=7.0, read-out: MGL mutant ThermoFluor Kd
[3] = compound concentration measured by qNMR, read-out: MGL mutant ThermoFluor qKd (using qNMR conc.)

Compound | IC50 [1] [nM] | 2-AG accumulation, percent of vehicle control at 1 µM (MGL) [%] | Kd (mutant MGL; [2]) [nM] | Kd (mutant MGL; [3]) [nM] | Rat Brain 2AG % VehCntrl (%) @1 μM (MGL; percent vehicle) [%]
Cc1c(C(=O)N2CCC(C3CN(C(=O)c4nccs4)C3)CC2)sc2cc(C(F)(F)F)ccc12 [Cpd 60, 1-{[3-Methyl-6-(trifluoromethyl)-1-benzothiophen-2-yl]carbonyl}-4-[1-(1,3-thiazol-2-ylcarbonyl)azetidin-3-yl]piperidine] | 10 | 508 | 0.8 | 0.5 | 
O=C(c1ccc(Cc2cccc(C(F)(F)F)c2)cc1)N1CC(C2CCN(C(=O)c3nccs3)CC2)C1 [Cpd 19, 1-(1,3-Thiazol-2-ylcarbonyl)-4-[1-({4-[3-(trifluoromethyl)benzyl]phenyl}carbonyl)azetidin-3-yl]piperidine] | < 5 | 559 | 9 |  | 
O=C(c1ccc2nc(-c3ccccc3)oc2c1)N1CCC(C2CN(C(=O)c3nccs3)C2)CC1 [Cpd 66, 2-Phenyl-6-({4-[1-(1,3-thiazol-2-ylcarbonyl)azetidin-3-yl]piperidin-1-yl}carbonyl)-1,3-benzoxazole] | 19.2 | 889 |  | 6.7 | 
O=C(c1ccc(-c2cccc(C(F)(F)F)c2)cc1)N1CC(C2CCN(C(=O)c3nccs3)CC2)C1 [Cpd 16, 1-(1,3-Thiazol-2-ylcarbonyl)-4-(1-{[3′-(trifluoromethyl)biphenyl-4-yl]carbonyl}azetidin-3-yl)piperidine] | 7 | 493 | 2 |  | 
O=C(c1ccc2nc(-c3ccccc3)oc2c1)N1CC(C2CCN(C(=O)c3cscn3)CC2)C1 [Cpd 34, 2-Phenyl-6-({3-[1-(1,3-thiazol-4-ylcarbonyl)piperidin-4-yl]azetidin-l-yl}carbonyl)-1,3-benzoxazole] | 54.4 | 517 | 198 |  | 
O=C(c1ccc(Cc2cccc(C(F)(F)F)c2)cc1)N1CCC(C2CN(C(=O)c3nccs3)C2)CC1 [Cpd 57, 4-[1-(1,3-Thiazol-2-ylcarbonyl)azetidin-3-yl]-1-({4-[3-(trifluoromethyl)benzyl]phenyl}carbonyl)piperidine] | 17 | 869 |  | 5.9 | 
O=C(c1ccc2c(ccn2-c2ccc(F)c(F)c2)c1)N1CCC(C2CN(C(=O)c3cscn3)C2)CC1 [Cpd 79, 1-(3,4-Difluorophenyl)-5-({4-[1-(1,3-thiazol-4-ylcarbonyl)azetidin-3-yl]piperidin-1-yl}carbonyl)-1H-indole] | 9 | 946 |  | 3.3 | 
O=C(c1ccc2c(ccn2-c2ccc(F)cc2)c1)N1CC(C2CCN(C(=O)c3cscn3)CC2)C1 [Cpd 36, 1-(4-Fluorophenyl)-5-({3-[1-(1,3-thiazol-4-ylcarbonyl)piperidin-4-yl]azetidin-1-yl}carbonyl)-1H-indole] | < 5 | 507 | 22.5 |  | 
O=C(c1ccc(Cc2ccc(C(F)(F)F)cc2)cc1)N1CCC(C2CN(C(=O)c3nccs3)C2)CC1 [Cpd 63, 4-[1-(1,3-Thiazol-2-ylcarbonyl)azetidin-3-yl]-1-({4-[4-(trifluoromethyl)benzyl]phenyl}carbonyl)piperidine] | < 5 | 435 |  | 17.4 | 
O=C(c1nccs1)N1CCC(C2CN(C(=O)c3sc4cc(F)ccc4c3Cl)C2)CC1 [Cpd 8, 4-{1-[(3-Chloro-6-fluoro-1-benzothiophen-2-yl)carbonyl]azetidin-3-yl}-1-(1,3-thiazol-2-ylcarbonyl)piperidine] | 7 | 523 | 4 |  | 
Cc1c(C(=O)N2CCC(C3CN(C(=O)c4ccc[nH]4)C3)CC2)sc2cc(C(F)(F)F)ccc12 [Cpd 62] | < 5 | 422 | 1.3 | 0.6 | 
O=C(c1ccc(Cc2ccc(C(F)(F)F)cc2)cc1)N1CCC(C2CN(C(=O)c3ccc[nH]3)C2)CC1 [Cpd 65, 4-[1-(1H-Pyrrol-2-ylcarbonyl)azetidin-3-yl]-1-({4-[4-(trifluoromethyl)benzyl]phenyl}carbonyl)piperidine] | < 5 | 241 |  | 40.4 | 
O=C(c1cscn1)N1CCC(C2CN(C(=O)c3sc4cc(F)ccc4c3Cl)C2)CC1 [Cpd 7, 4-{1-[(3-Chloro-6-fluoro-1-benzothiophen-2-yl)carbonyl]azetidin-3-yl}-1-(1,3-thiazol-4-ylcarbonyl)piperidine] | 56.5 | 185 | 25 |  | 
O=C(c1ccc(Cc2ccc(C(F)(F)F)cc2)cc1)N1CC(C2CCN(C(=O)c3ccc[nH]3)CC2)C1 [Cpd 39, 1-(1H-Pyrrol-2-ylcarbonyl)-4-[1-({4-[4-(trifluoromethyl)benzyl]phenyl}carbonyl)azetidin-3-yl]piperidine] | < 5 | 371 |  | 48.9 | 
1-(1H-Pyrrol-2-ylcarbonyl)-4-[1-({4-3-(trifluoromethyl)benzyl]phenyl}carbonyl)azetidin-3-yl]piperidine [Cpd 25] | 12 |  | 27.5 |  | 540
